Laboratory results taken from patent publication US11806342B2, “Diiodohydroxyquinoline for the treatment of clostridium difficile infection” (Purdue Research Foundation, priority 2019, dated 2023).
Structures can show the parent of a compound that is named as a salt. Where two headings read alike, the source gives them in different places.

Key:
[1] = tested on: C. difficile ATCC BAA-1870; assay: Initial screening of antiparasitic drugs, broth microdilution MIC; assay type: cell-based, Clostridium difficile
Method: (§1) C. difficile strains were grown anaerobically on brain heart infusion supplemented (BHIS) agar plates at 37° C. for 48 hours. Afterwards, a bacterial solution equivalent to 0.5 McFarland standard was prepared and diluted in (BHIS) broth to achieve a bacterial concentration of about 5×10^5 CFU/mL. Drugs were added and serially diluted along the plates. Plates were then, incubated anaerobically at 37° C. for 48 hours. MICs reported in Table (1) are the minimum concentrations of the drugs that could completely suppress the visual growth of bacteria.

C. difficile ATCC 43255 = assay: as above; assay type: cell-based, Clostridium difficile
Method: as §1

[2] = Clostridioides difficile, ATCC43255
[3] = Clostridioides difficile, initial screening, C. difficile ATCC BAA 1870, read-out: MIC
[4] = Clostridioides difficile, ATCC43255, initial screening, C. difficile ATCC 43255, read-out: MIC

| MIC [1, 3] | MIC (C. difficile ATCC 43255; [4]) | SMILES | also measured |
| --- | --- | --- | --- |
|  |  | CCCSc1ccc2nc(NC(=O)OC)[nH]c2c1 [Albendazole, albendazole] | MIC ([1]; Clostridioides difficile): > 128 µg/mL; MIC (C. difficile ATCC 43255; [2]): > 128 µg/mL |
|  |  | CC(C)OC(=O)Nc1ccc2nc(-c3cscn3)[nH]c2c1 [Cambendazole, cambendazole] | MIC ([1]; initial screening, C. difficile ATCC BAA 1870): >128 µg/mL; MIC (C. difficile ATCC 43255; initial screening, C. difficile ATCC 43255): >128 µg/mL |
| > 128 µg/mL | > 128 µg/mL | COC(=O)Nc1nc2ccc(C(=O)c3ccccc3)cc2[nH]1 [Mebendazole, mebendazole] |  |
| > 128 µg/mL | > 128 µg/mL | NC[C@@H]1O[C@H](O[C@H]2[C@@H](O)[C@H](O[C@@H]3[C@@H](O)[C@H](N)C[C@H](N)[C@H]3O[C@H]3O[C@H](CO)[C@@H](O)[C@H](O)[C@H]3N)O[C@@H]2CO)[C@H](N)[C@@H](O)[C@@H]1O [Paromomycin, paromomycin sulfate] |  |
| > 128 µg/mL | > 128 µg/mL | O=C(C1CCCCC1)N1CC(=O)N2CCc3ccccc3C2C1 (stereo not drawn) [Praziquantel, praziquantel] |  |
| > 128 µg/mL | > 128 µg/mL | CN1CCCN=C1/C=C/c1cccs1 [Pyrantel Pamoate, pyrantel pamoate] |  |
| > 128 µg/mL | > 128 µg/mL | CCc1nc(N)nc(N)c1-c1ccc(Cl)cc1 [Pyrimethamine, pyrimethamine] |  |
|  |  | CCC[S+]([O-])c1ccc2[nH]c(NC(=O)OC)nc2c1 (stereo not drawn) [Ricobendazole, ricobendazole] | MIC ([1]; Clostridioides difficile): > 128 µg/mL; MIC (C. difficile ATCC 43255; [2]): > 128 µg/mL |
| > 128 µg/mL | > 128 µg/mL | c1ccc2[nH]c(-c3cscn3)nc2c1 [Thiabendazole, thiabendazole] |  |
